Results on 24 compounds are retold here after US20250282794A1 (CURADEV PHARMA LTD, priority 2022, published 2025).

Bounds are passed on as bounds.

Chain of recombinant full length HPK-1 enzyme (Q92918 whole entry, species assumed): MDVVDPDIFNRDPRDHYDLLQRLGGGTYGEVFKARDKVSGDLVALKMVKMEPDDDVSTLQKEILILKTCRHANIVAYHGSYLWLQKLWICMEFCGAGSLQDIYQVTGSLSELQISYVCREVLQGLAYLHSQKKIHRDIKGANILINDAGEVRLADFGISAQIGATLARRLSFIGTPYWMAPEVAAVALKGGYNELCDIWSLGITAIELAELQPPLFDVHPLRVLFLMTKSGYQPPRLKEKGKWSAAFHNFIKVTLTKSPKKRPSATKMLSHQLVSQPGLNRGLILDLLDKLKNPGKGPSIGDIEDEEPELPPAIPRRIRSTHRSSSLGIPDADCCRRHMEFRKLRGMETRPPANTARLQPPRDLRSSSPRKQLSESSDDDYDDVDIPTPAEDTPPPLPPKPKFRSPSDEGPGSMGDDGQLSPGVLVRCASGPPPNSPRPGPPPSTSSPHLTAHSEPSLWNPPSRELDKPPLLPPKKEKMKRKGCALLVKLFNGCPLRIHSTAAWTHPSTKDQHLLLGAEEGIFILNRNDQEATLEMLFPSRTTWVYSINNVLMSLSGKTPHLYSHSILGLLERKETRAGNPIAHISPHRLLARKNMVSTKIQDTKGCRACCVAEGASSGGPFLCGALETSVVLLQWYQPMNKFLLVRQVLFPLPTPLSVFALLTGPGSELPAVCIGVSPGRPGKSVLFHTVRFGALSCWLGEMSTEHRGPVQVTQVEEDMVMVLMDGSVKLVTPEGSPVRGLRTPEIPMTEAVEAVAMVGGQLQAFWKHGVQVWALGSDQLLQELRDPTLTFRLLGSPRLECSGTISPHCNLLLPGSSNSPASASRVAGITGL

For the assay, the target named is recombinant full length HPK-1 enzyme (Homo sapiens (Human), UniProt Q92918). In words: HPK-1 biochemical enzyme assay (ADP-Glo kinase inhibition). The conditions noted are these: recombinant full length HPK-1 6.8 nM, 10 μM ATP, 12.5 μM MBP, 30 mins at 25° C. The protocol:
HPK-1 biochemical enzyme assay
Compound inhibitory potency was measured in an HPK-1 kinase inhibition assay. Briefly, recombinant full length HPK-1 enzyme (6.8 nM) was incubated with 10 μM ATP and 12.5 μM swine myelin basic protein (MBP) for 30 mins. at 25° C. in the presence of various concentrations of test compound or vehicle in 40 mM Tris.Cl pH7.4 buffer containing 20 mM MgCl2, 50 μM DTT and 0.1 mg/mL BSA. Reactions were quenched and reaction mixtures were then analyzed by an ADP-Glo kit which measures the formed ADP. The percent inhibition was calculated from the substrate conversion considering no enzyme control reactions for 100% inhibition and vehicle only reactions for 0% inhibition. The compounds were dissolved in DMSO and evaluated at 10 concentrations to determine an IC50 value.
In the below table A denotes an HPK-1 IC50≤10 nM, B denotes an HPK-1 IC50>10 nM but≤100 nM and C denotes an HPK-1 IC50>100 nM but≤1000 nM.
On to `Cc1c(Nc2cc[nH]c(=O)c2C(=O)Nc2ccc3c(c2)CN(C)C(=O)C3)cnc2c1NCCO2` [Example 180, 4-((8-methyl-2,3-dihydro-1H-pyrido[2,3-b][1,4]oxazin-7-yl)amino)-N-(2-methyl-3-oxo-1,2,3,4-tetrahydroisoquinolin-7-yl)-2-oxo-1,2-dihydropyridine-3-carboxamide], for which the IC50 fell in the range of 10 to 100 nM.

Regarding `Cc1c(Nc2cc[nH]c(=O)c2C(=O)Nc2ccc(N3CC4CCC(C3)N4C)cc2)cnc2c1NCC(C)O2` (stereo not drawn) [Example 181, 4-((3,8-dimethyl-2,3-dihydro-1H-pyrido[2,3-b][1,4]oxazin-7-yl)amino)-N-(4-(8-methyl-3,8-diazabicyclo[3.2.1]octan-3-yl)phenyl)-2-oxo-1,2-dihydropyridine-3-carboxamide], the IC50 fell in the range of 10 to 100 nM.

As for `Cc1c(Nc2cc[nH]c(=O)c2C(=O)Nc2ccc(N3CCN(C(=O)N(C)C)CC3)cc2)cnc2c1NCC(C)O2` (stereo not drawn) [Example 182, 4-(4-(4-((3,8-dimethyl-2,3-dihydro-1H-pyrido[2,3-b][1,4]oxazin-7-yl)amino)-2-oxo-1,2-dihydropyridine-3-carboxamido)phenyl)-N,N-dimethylpiperazine-1-carboxamide], the IC50 was ≤ 10 nM.

As to `Cc1c(Nc2cc[nH]c(=O)c2C(=O)Nc2ccc(N3CCN(C(C)C)CC3)c(F)c2)cnc2c1NCC(C)O2` (stereo not drawn) [Example 183, 4-((3,8-dimethyl-2,3-dihydro-1H-pyrido[2,3-b][1,4]oxazin-7-yl)amino)-N-(3-fluoro-4-(4-isopropylpiperazin-1-yl)phenyl)-2-oxo-1,2-dihydropyridine-3-carboxamide], the IC50 is ≤ 10 nM. Then `Cc1c(Nc2cc[nH]c(=O)c2C(=O)Nc2ccc(C3CC(=O)N(C)C3)cc2)cnc2c1NCCO2` (stereo not drawn) [Example 184, 4-((8-methyl-2,3-dihydro-1H-pyrido[2,3-b][1,4]oxazin-7-yl)amino)-N-(4-(1-methyl-5-oxopyrrolidin-3-yl)phenyl)-2-oxo-1,2-dihydropyridine-3-carboxamide], with ≤ 10 nM; and `COCCN1CCN(c2ccc(NC(=O)c3c(Nc4cnc5c(c4C)NCC(C)O5)cc[nH]c3=O)cc2F)CC1` (stereo not drawn) [Example 185, 4-((3,8-dimethyl-2,3-dihydro-1H-pyrido[2,3-b][1,4]oxazin-7-yl)amino)-N-(3-fluoro-4-(4-(2-methoxyethyl)piperazin-1-yl)phenyl)-2-oxo-1,2-dihydropyridine-3-carboxamide], with ≤ 10 nM.

Turning to `Cc1c(Nc2cc[nH]c(=O)c2C(=O)Nc2ccc(N3CCN(CCO)CC3)c(F)c2)cnc2c1NCC(C)O2` (stereo not drawn) [Example 186, 4-((3,8-dimethyl-2,3-dihydro-1H-pyrido[2,3-b][1,4]oxazin-7-yl)amino)-N-(3-fluoro-4-(4-(2-hydroxyethyl)piperazin-1-yl)phenyl)-2-oxo-1,2-dihydropyridine-3-carboxamide], the IC50 was ≤ 10 nM.

In the case of `Cc1c(Nc2cc[nH]c(=O)c2C(=O)Nc2ccc(N3CCN(C4CCCC4)CC3)cc2)cnc2c1NCC(C)O2` (stereo not drawn) [Example 187, N-(4-(4-cyclopentylpiperazin-1-yl)phenyl)-4-((3,8-dimethyl-2,3-dihydro-1H-pyrido[2,3-b][1,4]oxazin-7-yl)amino)-2-oxo-1,2-dihydropyridine-3-carboxamide], the IC50 was ≤ 10 nM.

With `CCC1CNc2c(ncc(Nc3cc[nH]c(=O)c3C(=O)Nc3ccc(N4CCN(C)CC4)cc3)c2C)O1` (stereo not drawn) [Example 188, 4-((3-ethyl-8-methyl-2,3-dihydro-1H-pyrido[2,3-b][1,4]oxazin-7-yl)amino)-N-(4-(4-methylpiperazin-1-yl)phenyl)-2-oxo-1,2-dihydropyridine-3-carboxamide], the IC50 is 10 to 100 nM. As for `Cc1c(Nc2cc[nH]c(=O)c2C(=O)Nc2ccc(N3CCN(C)CC3)cc2)cnc2c1NCC(C(C)C)O2` (stereo not drawn) [Example 189, 4-((3-isopropyl-8-methyl-2,3-dihydro-1H-pyrido[2,3-b][1,4]oxazin-7-yl)amino)-N-(4-(4-methylpiperazin-1-yl)phenyl)-2-oxo-1,2-dihydropyridine-3-carboxamide], the figure is 10 to 100 nM. As for `Cc1c(Nc2cc[nH]c(=O)c2C(=O)Nc2ccc(N3CCN(C)CC3)cc2)cnc2c1NCC1(CC1)O2` [Example 190, 4-((8′-methyl-1′,2′-dihydrospiro[cyclopropane-1,3′-pyrido[2,3-b][1,4]oxazin]-7′-yl)amino)-N-(4-(4-methylpiperazin-1-yl)phenyl)-2-oxo-1,2-dihydropyridine-3-carboxamide], the figure is 10 to 100 nM; as for `Cc1c(Nc2cc[nH]c(=O)c2C(=O)Nc2ccc(N3CCN(C)CC3)c(C#N)c2)cnc2c1NCC(C)O2` (stereo not drawn) [Example 191, N-(3-cyano-4-(4-methylpiperazin-1-yl)phenyl)-4-((3,8-dimethyl-2,3-dihydro-1H-pyrido[2,3-b][1,4]oxazin-7-yl)amino)-2-oxo-1,2-dihydropyridine-3-carboxamide], 10 to 100 nM; as for `Cc1c(Nc2cc[nH]c(=O)c2C(=O)Nc2cnn(C3CCN(C)CC3)c2)cnc2c1NCC(C)O2` (stereo not drawn) [Example 192, 4-((3,8-dimethyl-2,3-dihydro-1H-pyrido[2,3-b][1,4]oxazin-7-yl)amino)-N-(1-(1-methylpiperidin-4-yl)-1H-pyrazol-4-yl)-2-oxo-1,2-dihydropyridine-3-carboxamide], 10 to 100 nM. As for `Cc1c(Nc2cc[nH]c(=O)c2C(=O)Nc2ccc(N3CCN(Cc4ccn[nH]4)CC3)cc2)cnc2c1NCC(C)O2` (stereo not drawn) [Example 193, N-(4-(4-((1H-pyrazol-5-yl)methyl)piperazin-1-yl)phenyl)-4-((3,8-dimethyl-2,3-dihydro-1H-pyrido[2,3-b][1,4]oxazin-7-yl)amino)-2-oxo-1,2-dihydropyridine-3-carboxamide], the figure is ≤ 10 nM; as for `Cc1cc(N2CCN(C)CC2)ccc1NC(=O)c1c(Nc2cnc3c(c2C)NCCO3)cc[nH]c1=O` [Example 195, 4-((8-methyl-2,3-dihydro-1H-pyrido[2,3-b][1,4]oxazin-7-yl)amino)-N-(2-methyl-4-(4-methylpiperazin-1-yl)phenyl)-2-oxo-1,2-dihydropyridine-3-carboxamide], 100 to 1000 nM; as for `Cc1c(Nc2cc[nH]c(=O)c2C(=O)Nc2ccc(N3CCN(C)CC3)c(C(F)(F)F)c2)cnc2c1NCC(C)O2` (stereo not drawn) [Example 196, 4-((3,8-dimethyl-2,3-dihydro-1H-pyrido[2,3-b][1,4]oxazin-7-yl)amino)-N-(4-(4-methylpiperazin-1-yl)-3-(trifluoromethyl)phenyl)-2-oxo-1,2-dihydropyridine-3-carboxamide], 10 to 100 nM. Take `COCC1CN(C)CCN1c1ccc(NC(=O)c2c(Nc3cnc4c(c3C)NCC(C)O4)cc[nH]c2=O)cc1` (stereo not drawn) [Example 197, 4-((3,8-Dimethyl-2,3-dihydro-1H-pyrido[2,3-b][1,4]oxazin-7-yl)amino)-N-(4-(2-(methoxymethyl)-4-methylpiperazin-1-yl)phenyl)-2-oxo-1,2-dihydropyridine-3-carboxamide]: the concentration for half-maximal inhibition (IC50) was in the range of 10 to 100 nM. Then `Cc1c(Nc2cc[nH]c(=O)c2C(=O)Nc2ccc(N3CCN(C)CC3)cc2)cnc2c1NCC(F)O2` (stereo not drawn) [Example 198, 4-((3-Fluoro-8-methyl-2,3-dihydro-1H-pyrido[2,3-b][1,4]oxazin-7-yl)amino)-N-(4-(4-methylpiperazin-1-yl)phenyl)-2-oxo-1,2-dihydropyridine-3-carboxamide], with 10 to 100 nM. Then `Cc1c(Nc2cc[nH]c(=O)c2C(=O)Nc2ccc(N3CCN(C)CC3)nc2)cnc2c1NCC(C)O2` (stereo not drawn) [Example 199], with 10 to 100 nM; and `Cc1cc(NC(=O)c2c(Nc3cnc4c(c3C)NCC(C)O4)cc[nH]c2=O)ccc1N1CCN(C)CC1` (stereo not drawn) [Example 200, 4-((3,8-dimethyl-2,3-dihydro-1H-pyrido[2,3-b][1,4]oxazin-7-yl)amino)-N-(3-methyl-4-(4-methylpiperazin-1-yl)phenyl)-2-oxo-1,2-dihydropyridine-3-carboxamide], with ≤ 10 nM. Then `Cc1c(Nc2cc[nH]c(=O)c2C(=O)Nc2ccc(N3CCN4CCCC4C3)cc2)cnc2c1NCC(C)O2` (stereo not drawn) [Example 201, 4-((3,8-dimethyl-2,3-dihydro-1H-pyrido[2,3-b][1,4]oxazin-7-yl)amino)-N-(4-(hexahydropyrrolo[1,2-a]pyrazin-2(1H)-yl)phenyl)-2-oxo-1,2-dihydropyridine-3-carboxamide], with 10 to 100 nM; and `COCCN1CCC(c2ccc(NC(=O)c3c(Nc4cnc5c(c4C)NCCO5)cc[nH]c3=O)cc2)CC1` [Example 202, N-(4-(1-(2-methoxyethyl)piperidin-4-yl)phenyl)-4-((8-methyl-2,3-dihydro-1H-pyrido[2,3-b][1,4]oxazin-7-yl)amino)-2-oxo-1,2-dihydropyridine-3-carboxamide], with 10 to 100 nM; and `COc1cc(NC(=O)c2c(Nc3cnc4c(c3C)NCC(C)O4)cc[nH]c2=O)ccc1N1CCN(C)CC1` (stereo not drawn) [Example 203, 4-((3,8-dimethyl-2,3-dihydro-1H-pyrido[2,3-b][1,4]oxazin-7-yl)amino)-N-(3-methoxy-4-(4-methylpiperazin-1-yl)phenyl)-2-oxo-1,2-dihydropyridine-3-carboxamide], with 10 to 100 nM. Regarding `Cc1c(Nc2cc[nH]c(=O)c2C(=O)Nc2ccc(N3CCN(C)CC3)c(CO)c2)cnc2c1NCC(C)O2` (stereo not drawn) [Example 204, 4-((3,8-dimethyl-2,3-dihydro-1H-pyrido[2,3-b][1,4]oxazin-7-yl)amino)-N-(3-(hydroxymethyl)-4-(4-methylpiperazin-1-yl)phenyl)-2-oxo-1,2-dihydropyridine-3-carboxamide], the concentration for half-maximal inhibition (IC50) lay in the range of 10 to 100 nM.

In general, IC50 refers to the point on the concentration scale where inhibition reaches its midpoint.
